Experimental data published in patent US11000033B2, “Ketone or oxime compound, and herbicide” (NISSAN CHEMICAL CORPORATION, priority 2014, dated 2021).

Tests used:
Type in all cases: in vivo
[1] = system: Amaranthus retroflexus; assay: Test Example 5: herbicidal effect by foliage application, plastic box (symbol N); details: 320 g/ha, 3 weeks after application
Outline: (§1)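 Greenhouse foliar test: seedlings at 14 days, grown 25° C. to 30° C. in sterilized diluvial soil; compound applied as an aqueous dilution of an emulsion; response read 3 weeks after spraying.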

[2] = system: Echinochloa crus-galli var. crus-galli; assay: Test Example 5: herbicidal effect by foliage application, plastic box (symbol H); details: 320 g/ha, 3 weeks after application
Outline: as §1

[3] = system: Stellaria media; assay: Test Example 5: herbicidal effect by foliage application, plastic box (symbol P); details: 320 g/ha, 3 weeks after application
Outline: as §1

[4] = system: Veronica persica; assay: Test Example 4: herbicidal effect by soil treatment (symbol R); details: for R: Veronica persica, herbicidal effect grade: 320 g/ha
Outline: (§2)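 Seeds were sown in sterilized diluvial soil, covered with about 1.5 cm of soil, and the soil surface was sprayed with a water-diluted emulsion of the compound at a predetermined rate. Plants grew in a greenhouse at 25° C. to 30° C.; effects were scored visually 3 weeks after application.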

[5] = system: Setaria viridis; assay: Test Example 4: herbicidal effect by soil treatment (symbol G); details: for G: Setaria viridis, herbicidal effect grade: 320 g/ha
Outline: as §2

[6] = system: Scirpus juncoides; assay: Test Example 2: herbicidal activity, application during weed generation in submerged conditions (symbol B); details: Table 23; application herbicide amount 320 g/ha; grade 0-5 by criteria of Test Example 1
Outline: (§3)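 Visual herbicidal ratings, taken three weeks after dosing, reflect post-emergence water-surface application to seedlings at one to two leaves. Conditions: co-sown weeds in alluvial soil flooded to 4 cm, greenhouse held at 25° C. to 30° C.; compound given as water-diluted emulsion at a fixed herbicide amount.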

[7] = system: Alopecurus myosuroides; assay: Test Example 4: herbicidal effect by soil treatment (symbol J); details: for J: Alopecurus myosuroides, herbicidal effect grade: 320 g/ha
Outline: as §2

[8] = system: Stellaria media; assay: Test Example 4: herbicidal effect by soil treatment (symbol P); details: for P: Stellaria media, herbicidal effect grade: 320 g/ha
Outline: as §2

[9] = system: wheat; assay: Test Example 4: effect on crop by soil treatment (symbol e); details: for e: wheat, effect grade on crop: 320 g/ha
Outline: (§4)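 Soil-treatment setup: crop and weed seeds were spot-sown into sterilized diluvial soil, then buried beneath approximately 1.5 cm of it, and the boxes were housed in a 25–30° C. greenhouse.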

[10] = system: rice plant; assay: Test Example 5: effect on crop by foliage application, plastic box (symbol b); details: 320 g/ha, 3 weeks after application
Outline: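 Soil: sterilized diluvial. Container: plastic box, 21 × 13 cm, 7 cm deep. Sowing: spot-like, ~1.5 cm cover. Growth: greenhouse, 25° C. to 30° C.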

[11] = system: Leptochloa chinensis; assay: Test Example 3: herbicidal effect by foliage application, Wagner pot (symbol D); details: application herbicide amount 320 g/ha
Outline: (§5)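 Herbicidal activity was rated three weeks after a foliar spray of diluted emulsion concentrate, applied at a predetermined dose to plants grown for 14 days from seed in waterlogged alluvial soil within a 25–30 °C greenhouse.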

[12] = system: Digitaria ciliaris; assay: Test Example 4: herbicidal effect by soil treatment (symbol F); details: for F: Digitaria ciliaris, herbicidal effect grade: 320 g/ha
Outline: as §2

[13] = system: Echinochloa crus-galli var. crus-galli; assay: Test Example 3: herbicidal effect by foliage application, Wagner pot (symbol H); details: application herbicide amount 320 g/ha
Outline: as §5

[14] = system: Chenopodium album; assay: Test Example 5: herbicidal effect by foliage application, plastic box (symbol O); details: 320 g/ha, 3 weeks after application
Outline: as §1

[15] = system: Monochoria vaginalis; assay: Test Example 2: herbicidal activity, application during weed generation in submerged conditions (symbol C); details: Table 23; application herbicide amount 320 g/ha; grade 0-5 by criteria of Test Example 1
Outline: as §3

[16] = system: Lolium multiflorum Lam.; assay: Test Example 4: herbicidal effect by soil treatment (symbol K); details: for K: Lolium multiflorum Lam., herbicidal effect grade: 320 g/ha
Outline: as §2

[17] = system: Avena fatua; assay: Test Example 4: herbicidal effect by soil treatment (symbol I); details: for I: Avena fatua, herbicidal effect grade: 320 g/ha
Outline: as §2

[18] = system: Echinochloa oryzacola Vasing.; assay: Test Example 2: herbicidal activity, application during weed generation in submerged conditions (symbol A); details: Table 23; application herbicide amount 320 g/ha; grade 0-5 by criteria of Test Example 1
Outline: as §3

[19] = system: rice; assay: Test Example 4: effect on crop by soil treatment (symbol b); details: for b: directly sowed rice plant, effect grade on crop: 320 g/ha
Outline: as §4

[20] = system: Alopecurus myosuroides; assay: Test Example 5: herbicidal effect by foliage application, plastic box (symbol J); details: 320 g/ha, 3 weeks after application
Outline: as §1

[21] = application herbicide amount 320 g/ha

| Compound | Herbicidal effect grade, B: Scirpus juncoides [6] | Herbicidal effect grade, C: Monochoria vaginalis [15] | Herbicidal effect grade, A: Echinochloa oryzacola Vasing. [18] | H: Echinochloa crus-galli var. crus-galli, herbicidal effect (criteria 0-5) [2] | P: Stellaria media, herbicidal effect (criteria 0-5) [3] | R: Veronica persica, herbicidal effect grade [4] | G: Setaria viridis, herbicidal effect grade [5] | J: Alopecurus myosuroides, herbicidal effect grade [7] | P: Stellaria media, herbicidal effect grade [8] | e: wheat, effect grade on crop [9] | b: directly sowed rice plant, effect on crop (criteria 0-5) [10] | F: Digitaria ciliaris, herbicidal effect grade [12] | O: Chenopodium album, herbicidal effect (criteria 0-5) [14] | K: Lolium multiflorum Lam., herbicidal effect grade [16] | I: Avena fatua, herbicidal effect grade [17] | b: directly sowed rice plant, effect grade on crop [19] | J: Alopecurus myosuroides, herbicidal effect (criteria 0-5) [20] | other results |
| --- | --- | --- | --- | --- | --- | --- | --- | --- | --- | --- | --- | --- | --- | --- | --- | --- | --- | --- |
| CC(CC1CC(OC(=O)COc2ccccc2)=C(c2c(C)cc(-c3ccc(Cl)cc3)cc2C)C1=O)=NOCC(F)(F)F (mixture of isomers) [9-027] | 0 (Herbicidal ratio of 5% or lower (almost no effect)) | 0 (Herbicidal ratio of 5% or lower (almost no effect)) | 3 (Herbicidal ratio of 40% or higher and lower than 70%) | – | – | – | – | – | – | – | – | – | – | – | – | – | – | N: Amaranthus retroflexus, herbicidal effect grade [1]: 0 (Herbicidal ratio of 5% or lower (almost no effect)); H: Echinochloa crus-galli var. crus-galli, herbicidal effect grade [2]: 5 (Herbicidal ratio of 90% or more (almost completely withered)); P: Stellaria media, herbicidal effect grade [3]: 3 (Herbicidal ratio of 40% or higher and lower than 70%); Herbicidal effect grade, R: Veronica persica [4, 21]: 3 (Herbicidal ratio of 40% or higher and lower than 70%); Herbicidal effect grade, G: Setaria viridis [5, 21]: 5 (Herbicidal ratio of 90% or more (almost completely withered)); Herbicidal effect grade, J: Alopecurus myosuroides [7, 21]: 5 (Herbicidal ratio of 90% or more (almost completely withered)); Herbicidal effect grade, P: Stellaria media [8, 21]: 3 (Herbicidal ratio of 40% or higher and lower than 70%); Effect on crop grade, e: wheat [9, 21]: 2 (Herbicidal ratio of 20% or higher and lower than 40%); b: directly sowed rice plant, effect on crop grade [10]: 5 (Herbicidal ratio of 90% or more (almost completely withered)); D (Leptochloa chinensis) herbicidal effect grade ([11]; Table 24): 5 (Herbicidal ratio of 90% or more (almost completely withered)); Herbicidal effect grade, F: Digitaria ciliaris [12, 21]: 5 (Herbicidal ratio of 90% or more (almost completely withered)); H (Echinochloa crus-galli var. crus-galli) herbicidal effect grade ([13]; Table 24): 5 (Herbicidal ratio of 90% or more (almost completely withered)); O: Chenopodium album, herbicidal effect grade [14]: 2 (Herbicidal ratio of 20% or higher and lower than 40%); Herbicidal effect grade, K: Lolium multiflorum Lam. [16, 21]: 5 (Herbicidal ratio of 90% or more (almost completely withered)); Herbicidal effect grade, I: Avena fatua [17, 21]: 4 (Herbicidal ratio of 70% or higher and lower than 90%); Effect on crop grade, b: directly sowed rice plant [19, 21]: 5 (Herbicidal ratio of 90% or more (almost completely withered)); J: Alopecurus myosuroides, herbicidal effect grade [20]: 5 (Herbicidal ratio of 90% or more (almost completely withered)) |
| CC(CC1CC(O)=C(c2c(C)cc(C)cc2C)C1=O)=NOCc1ccccc1Cl (stereo not drawn) [1-113] | 3 (Herbicidal ratio of 40% or higher and lower than 70%) | 0 (Herbicidal ratio of 5% or lower (almost no effect)) | 3 (Herbicidal ratio of 40% or higher and lower than 70%) | 4 (Herbicidal ratio of 70% or higher and lower than 90%) | 3 (Herbicidal ratio of 40% or higher and lower than 70%) | 0 (Herbicidal ratio of 5% or lower (almost no effect)) | 0 (Herbicidal ratio of 5% or lower (almost no effect)) | 3 (Herbicidal ratio of 40% or higher and lower than 70%) | 0 (Herbicidal ratio of 5% or lower (almost no effect)) | 0 (Herbicidal ratio of 5% or lower (almost no effect)) | 4 (Herbicidal ratio of 70% or higher and lower than 90%) | 1 (Herbicidal ratio of 5% or higher and lower than 20%) | 2 (Herbicidal ratio of 20% or higher and lower than 40%) | 5 (Herbicidal ratio of 90% or more (almost completely withered)) | 3 (Herbicidal ratio of 40% or higher and lower than 70%) | 2 (Herbicidal ratio of 20% or higher and lower than 40%) | 4 (Herbicidal ratio of 70% or higher and lower than 90%) | N: Amaranthus retroflexus, herbicidal effect (criteria 0-5) [1]: 0 (Herbicidal ratio of 5% or lower (almost no effect)) |
| CC(CC1CC(O)=C(c2c(C)cc(C)cc2C)C1=O)=NOCc1ccc(Cl)cc1 (stereo not drawn) [1-137] | 4 (Herbicidal ratio of 70% or higher and lower than 90%) | 3 (Herbicidal ratio of 40% or higher and lower than 70%) | 4 (Herbicidal ratio of 70% or higher and lower than 90%) | 5 (Herbicidal ratio of 90% or more (almost completely withered)) | 0 (Herbicidal ratio of 5% or lower (almost no effect)) | 0 (Herbicidal ratio of 5% or lower (almost no effect)) | 5 (Herbicidal ratio of 90% or more (almost completely withered)) | 5 (Herbicidal ratio of 90% or more (almost completely withered)) | 0 (Herbicidal ratio of 5% or lower (almost no effect)) | 0 (Herbicidal ratio of 5% or lower (almost no effect)) | 5 (Herbicidal ratio of 90% or more (almost completely withered)) | 5 (Herbicidal ratio of 90% or more (almost completely withered)) | 3 (Herbicidal ratio of 40% or higher and lower than 70%) | 5 (Herbicidal ratio of 90% or more (almost completely withered)) | 2 (Herbicidal ratio of 20% or higher and lower than 40%) | 5 (Herbicidal ratio of 90% or more (almost completely withered)) | 5 (Herbicidal ratio of 90% or more (almost completely withered)) | herbicidal effect on D (Leptochloa chinensis), grade 0-5 [11]: 5 (Herbicidal ratio of 90% or more (almost completely withered)); herbicidal effect on H (Echinochloa crus-galli var. crus-galli), grade 0-5 [13]: 5 (Herbicidal ratio of 90% or more (almost completely withered)) |
